Where two headings read alike, the source gives them in different places.
How the values were obtained:
[1] = parameters: method as in Hecker et al., 2020; details: rats; ref Hecker et al., 2020; cited from earlier work
NDM-1 [2] = biological target: T1, NDM-1 (Klebsiella pneumoniae, UniProt C7C422); experiment: Enzyme inhibition assay (nitrocefin hydrolysis); format: biochemical
T1 construct: made in house; host or cells: E. coli BL21
Protocol: (§1) According to the methodology of Liu et al. the enzyme and nitrocefin were mixed and incubated at 37°C for 10 min. Consequently, absorbance was measured at 492 nm in a microplate reader. The specific calculation method was obtained from the literature ([Liu et al., 2018b]).

T94A-NDM-1 [3] = biological target: T2, T94A-NDM-1 (Klebsiella pneumoniae, UniProt C7C422, T94A); experiment: Enzyme reaction rate (steady-state kinetics, nitrocefin); format: biochemical, E. coli; details: T94A treated with carnosic acid
Protocol: (§2) The principle of the measurement is mainly by using nitrocefin as an indicator, and its color changes from yellow to red with the increase of hydrolysis. NDM-1 (250 ng/ml) was incubated with various concentrations of carnosic acid in phosphate buffered saline, and then 50 μg/m L of nitrocefin was added to the mixture ([Teng et al., 2019]). The reaction rate was determined by continuously measuring the absorbance at OD492 nm at different times ([Krupyanko, 2009]).

F46A-NDM-1 [4] = biological target: T3, F46A-NDM-1 (Klebsiella pneumoniae, UniProt C7C422, F46A); experiment: as above; format: biochemical, E. coli; details: F46A treated with carnosic acid
Protocol: as §2

WT-NDM-1 [5] = biological target: T4, WT-NDM-1 (Klebsiella pneumoniae, UniProt C7C422); experiment: as above; format: biochemical, E. coli; details: WT-NDM-1 treated with carnosic acid
T4 construct: made in house; host or cells: E. coli BL21
Protocol: as §2

L65A-NDM-1 [6] = biological target: T5, L65A-NDM-1 (Klebsiella pneumoniae, UniProt C7C422, L65A); experiment: as above; format: biochemical, E. coli; details: L65A treated with carnosic acid
Protocol: as §2

[7] = system: E. coli ZC-YN3 (producing NDM-1); experiment: MIC by broth microdilution / checkerboard; format: cell-based; details: Escherichia coli
T94A-NDM-1 [8] = biological target: T2, T94A-NDM-1; experiment: Fluorescence-quenching assay; format: binding, E. coli; details: T94A-NDM-1, 300 K
Protocol: (§3) The binding constant (KA) of the binding site of carnosic acid to wild type NDM-1 (WT-NDM-1), F46A-NDM-1, L65A-NDM-1, and T94A-NDM-1 was measured using a fluorescence quenching method. The binding energy was calculated according to the equation: r/Df = nK − rK. This method referred to the previous literature ([Wang J. F. et al., 2015]), using an excitation wavelength of 280 nm and an emission wavelength of 345 nm.

F46A-NDM-1 [9] = biological target: T3, F46A-NDM-1; experiment: Fluorescence-quenching assay; format: binding, E. coli; details: F46A-NDM-1, 300 K
Protocol: as §3

WT-NDM-1 [10] = biological target: T4, WT-NDM-1; experiment: Fluorescence-quenching assay; format: binding, E. coli; details: WT-NDM-1, 300 K
Protocol: as §3

L65A-NDM-1 [11] = biological target: T5, L65A-NDM-1; experiment: Fluorescence-quenching assay; format: binding, E. coli; details: L65A-NDM-1, 300 K
Protocol: as §3

mice = details: acute toxicity study, ref Wang et al., 2012; cited from earlier work
E. coli ZC-YN3 [12] = experiment: Growth curves; format: cell-based, Escherichia coli; details: carnosic acid alone, Figure 2A
[13] = system: F46A-NDM-1, L65A-NDM-1, T94A-NDM-1 mutants; experiment: Enzyme inhibition assay with NDM-1 mutants; format: biochemical, E. coli; details: Figure 5E
Excerpt: The coding sequence of the NDM-1 gene were amplified from genomic DNA of E. coli and digested with BamHI and XhoI. Subsequently, it was cloned into pET28a to generate plasmid pET28a-NDM-1. Plasmids encoding F46A-NDM-1, L65A-NDM-1, and T94A-NDM-1 were constructed using a QuikChange site-directed mutagenesis kit. The ligation product was transformed into competent E. coli DH5α cells. All constructed strains were verified by PCR and DNA sequencing ([Ali et al., 2018]). The NDM-1 primer came from the literature ([Teng et al., 2019]), and the other primers were designed in this experiment.
as §1

E. coli ZC-YN3 [14] = experiment: Time-killing assay; format: cell-based, Escherichia coli; details: after 4 hours
NDM-1 [15] = details: ref Chiou et al., 2015; read-out: IC50 for inhibiting NDM-1 in the hydrolysis of imipenem; cited from earlier work
[16] = system: bacteria carrying carbapenemases; parameters: method as in Chiou et al., 2015; details: ref Chiou et al., 2015; cited from earlier work
[17] = screening hits, Figure 1A, read-out: IC50 (converted)

T1 sequence (C7C422 29-270, looked up): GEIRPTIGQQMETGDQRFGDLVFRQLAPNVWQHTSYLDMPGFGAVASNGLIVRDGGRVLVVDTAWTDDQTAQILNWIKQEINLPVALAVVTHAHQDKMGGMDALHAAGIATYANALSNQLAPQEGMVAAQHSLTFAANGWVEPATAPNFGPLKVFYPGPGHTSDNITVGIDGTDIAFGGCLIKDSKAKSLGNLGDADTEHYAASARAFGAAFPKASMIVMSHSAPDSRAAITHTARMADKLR
T5 sequence (C7C422 29-270 L65A): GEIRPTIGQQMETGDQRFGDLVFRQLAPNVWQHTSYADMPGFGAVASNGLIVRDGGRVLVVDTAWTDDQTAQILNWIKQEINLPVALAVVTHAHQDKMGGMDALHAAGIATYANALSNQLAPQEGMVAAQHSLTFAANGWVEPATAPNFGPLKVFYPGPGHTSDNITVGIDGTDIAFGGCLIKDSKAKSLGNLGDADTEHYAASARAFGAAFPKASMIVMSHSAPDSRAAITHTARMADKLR
T4 sequence (C7C422 29-270 limits assumed): as the sequence (C7C422 29-270, looked up) above
T3 sequence (C7C422 29-270 F46A): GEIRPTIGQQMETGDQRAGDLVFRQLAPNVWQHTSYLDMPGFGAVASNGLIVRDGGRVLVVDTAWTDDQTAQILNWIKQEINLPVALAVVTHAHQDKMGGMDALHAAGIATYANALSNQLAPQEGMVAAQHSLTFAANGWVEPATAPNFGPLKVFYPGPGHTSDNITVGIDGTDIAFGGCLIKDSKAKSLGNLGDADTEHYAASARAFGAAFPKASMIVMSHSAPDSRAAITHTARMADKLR
T2 sequence (C7C422 29-270 T94A): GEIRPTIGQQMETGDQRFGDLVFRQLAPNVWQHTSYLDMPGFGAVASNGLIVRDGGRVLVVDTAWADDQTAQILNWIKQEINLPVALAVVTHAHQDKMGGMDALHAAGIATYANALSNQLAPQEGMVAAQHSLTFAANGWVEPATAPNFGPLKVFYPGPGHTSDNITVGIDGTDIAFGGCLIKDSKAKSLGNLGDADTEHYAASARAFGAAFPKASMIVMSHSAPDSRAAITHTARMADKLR

O=C(O)c1c(F)ccc2c1OB(O)[C@@H]1C[C@H]21 [QPX7728]
oral bioavailability [1]: good oral bioavailability

CCCCC/C=C\C/C=C\CCCCCCCC(=O)O [Linolate]
IC50 (NDM-1 [2]; [17]): 218 µM

O=C1C[C@@H](c2ccc(O[C@@H]3O[C@H](CO)[C@@H](O)[C@H](O)[C@H]3O)cc2)Oc2cc(O)ccc21 [Liquiritin]
IC50 (NDM-1 [2]): 130 µM

COc1cc(O)cc2c1C(=O)C[C@@H](c1ccccc1)O2 [Alpinetin]
IC50 (NDM-1 [2]): 122 µM

O=C(/C=C/c1ccc(O)cc1)c1ccc(O)cc1O [6'-Deoxychalcone]
IC50 (NDM-1 [2]): 163 µM

O=C(O)/C=C/c1ccccc1 [Cinnamic Acid]
IC50 (NDM-1 [2]): 225 µM

CC(C)c1cc2c(c(O)c1O)[C@@]1(C(=O)O)CCCC(C)(C)[C@@H]1CC2 [carnosic acid]
hydrolysis reaction rate (slope of absorbance at 492 nm vs time) (T94A-NDM-1 [3]): 0.02277
hydrolysis reaction rate (slope of absorbance at 492 nm vs time) (F46A-NDM-1 [4]): 0.0225
hydrolysis reaction rate (slope of absorbance at 492 nm vs time) (WT-NDM-1 [5]): 0.00742
hydrolysis reaction rate (slope of absorbance at 492 nm vs time) (L65A-NDM-1 [6]): 0.02164
IC50 (NDM-1 [2]): 27.1 µM
decrease of protein activity (NDM-1 [2]; 8 μg/ml carnosic acid): 48.56%
activity of the protein (remaining) (NDM-1 [2]; 32 μg/ml carnosic acid): 19.85%
MIC [7]: > 32 µg/mL
Binding constants K (T94A-NDM-1 [8]): 0.3291 mL/µg
Binding constants K (F46A-NDM-1 [9]): 0.1272 mL/µg
Binding constants K (WT-NDM-1 [10]): 0.4564 mL/µg
Binding constants K (L65A-NDM-1 [11]): 0.336 mL/µg
oral lethal dose (mice): greater than 7000 mg/kg
effect on growth (E. coli ZC-YN3 [12]): nor inhibitory effect on the growth of E. coli ZC-YN3
effect on the activity of mutants [13]: no obvious effect on the activity of mutants

O=c1c(-c2ccc(O[C@@H]3O[C@H](CO)[C@@H](O)[C@H](O)[C@H]3O)cc2)coc2cc(O)cc(O)c12 [Sophoricoside]
IC50 (NDM-1 [2]; [17]): 152 µM

C[C@@H](O)[C@H]1C(=O)N2C(C(=O)O)=C(S[C@@H]3CN[C@H](C(=O)N(C)C)C3)[C@H](C)[C@H]12 [Meropenem, meropenem, reference compound]
inhibitory effect on E. coli (time-kill) (E. coli ZC-YN3 [14]): weakened
MIC ([7]; meropenem alone, read-out: MIC of meropenem): 16 µg/mL

C[N+](C)(C)CC(=O)O [Betaine]
IC50 (NDM-1 [2]; [17]): 355 µM

C[C@H](CS)C(=O)N1CCC[C@@H]1C(=O)O [D-captopril]
effect on bacteria carrying carbapenemases [16]: no effect

C[C@H](CS)C(=O)N1CCC[C@H]1C(=O)O [L-captopril]
effect on bacteria carrying carbapenemases [16]: no effect

Reference: publication PMC7566295, “Discovery of a Novel Natural Allosteric Inhibitor That Targets NDM-1 Against Escherichia coli” (Frontiers in Pharmacology, 2020)
